# According to PubChem BioAssay (NCI):
#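 GI50 = concentration required for 50% inhibition of growth. The concentration for full growth arrest is given as TGI.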
# Key:
# Test in all cases: NCI-60 cell line screen, 384-well format
# 786-0 renal = tested on: 786-0 renal
# A498 renal = tested on: A498 renal
# A549 NSCLC = tested on: A549 NSCLC
# ACHN renal = tested on: ACHN renal
# BT-549 breast = tested on: BT-549 breast
# CAKI-1 renal = tested on: CAKI-1 renal
# CCRF-CEM leukemia = tested on: CCRF-CEM leukemia
# COLO 205 colon = tested on: COLO 205 colon
# DU-145 prostate = tested on: DU-145 prostate
# EKVX NSCLC = tested on: EKVX NSCLC
# HCC-2998 colon = tested on: HCC-2998 colon
# HCT-116 colon = tested on: HCT-116 colon
# HCT-15 colon = tested on: HCT-15 colon
# HL-60(TB) leukemia = tested on: HL-60(TB) leukemia
# HOP-62 NSCLC = tested on: HOP-62 NSCLC
# HOP-92 NSCLC = tested on: HOP-92 NSCLC
# HS 578T breast = tested on: HS 578T breast
# HT29 colon = tested on: HT29 colon
# IGROV1 ovarian = tested on: IGROV1 ovarian
# K-562 leukemia = tested on: K-562 leukemia
# KM12 colon = tested on: KM12 colon
# LOX IMVI melanoma = tested on: LOX IMVI melanoma
# M14 melanoma = tested on: M14 melanoma
# MALME-3M melanoma = tested on: MALME-3M melanoma
# MCF7 breast = tested on: MCF7 breast
# MDA-MB-231 breast = tested on: MDA-MB-231 breast
# MDA-MB-435 melanoma = tested on: MDA-MB-435 melanoma
# MDA-MB-468 breast = tested on: MDA-MB-468 breast
# MOLT-4 leukemia = tested on: MOLT-4 leukemia
# NCI-H226 lung = tested on: NCI-H226 lung
# NCI-H23 lung = tested on: NCI-H23 lung
# NCI-H322M lung = tested on: NCI-H322M lung
# NCI-H460 NSCLC = tested on: NCI-H460 NSCLC
# NCI-H522 lung = tested on: NCI-H522 lung
# NCI/ADR-RES ovarian = tested on: NCI/ADR-RES ovarian
# OVCAR-3 ovarian = tested on: OVCAR-3 ovarian
# OVCAR-4 ovarian = tested on: OVCAR-4 ovarian
# OVCAR-5 ovarian = tested on: OVCAR-5 ovarian
# OVCAR-8 ovarian = tested on: OVCAR-8 ovarian
# PC-3 prostate = tested on: PC-3 prostate
# RPMI-8226 leukemia = tested on: RPMI-8226 leukemia
# RXF 393 renal = tested on: RXF 393 renal
# SF-268 CNS = tested on: SF-268 CNS
# SF-295 CNS = tested on: SF-295 CNS
# SF-539 CNS = tested on: SF-539 CNS
# SK-MEL-28 melanoma = tested on: SK-MEL-28 melanoma
# SK-MEL-5 melanoma = tested on: SK-MEL-5 melanoma
# SK-OV-3 ovarian = tested on: SK-OV-3 ovarian
# SN12C renal = tested on: SN12C renal
# SNB-19 CNS = tested on: SNB-19 CNS
# SNB-75 CNS = tested on: SNB-75 CNS
# SW-620 colon = tested on: SW-620 colon
# T-47D breast = tested on: T-47D breast
# TK-10 renal = tested on: TK-10 renal
# U251 glioblastoma = tested on: U251 glioblastoma
# UACC-257 melanoma = tested on: UACC-257 melanoma
# UACC-62 melanoma = tested on: UACC-62 melanoma
# UO-31 renal = tested on: UO-31 renal
smiles,measurement,setting,value
COc1cc2c(NC3CCN(C(C)C)CC3)nc(C3CCCCC3)nc2cc1OCCCN1CCCC1,GI50,786-0 renal,1350 nM
same,TGI,786-0 renal,2650 nM
same,GI50,A498 renal,683 nM
same,TGI,A498 renal,1960 nM
same,GI50,A549 NSCLC,1560 nM
same,TGI,A549 NSCLC,3000 nM
same,GI50,ACHN renal,1790 nM
same,TGI,ACHN renal,3800 nM
same,GI50,BT-549 breast,378 nM
same,TGI,BT-549 breast,1340 nM
same,GI50,CAKI-1 renal,1390 nM
same,TGI,CAKI-1 renal,2720 nM
same,GI50,CCRF-CEM leukemia,205 nM
same,TGI,CCRF-CEM leukemia,397 nM
same,GI50,COLO 205 colon,1330 nM
same,TGI,COLO 205 colon,2640 nM
same,GI50,DU-145 prostate,1230 nM
same,TGI,DU-145 prostate,4290 nM
same,GI50,EKVX NSCLC,807 nM
same,TGI,EKVX NSCLC,2860 nM
same,GI50,HCC-2998 colon,1560 nM
same,TGI,HCC-2998 colon,3010 nM
same,GI50,HCT-116 colon,550 nM
same,TGI,HCT-116 colon,1750 nM
same,GI50,HCT-15 colon,1240 nM
same,TGI,HCT-15 colon,5200 nM
same,GI50,HL-60(TB) leukemia,429 nM
same,TGI,HL-60(TB) leukemia,1070 nM
same,GI50,HOP-62 NSCLC,1710 nM
same,TGI,HOP-62 NSCLC,3140 nM
same,GI50,HOP-92 NSCLC,1200 nM
same,TGI,HOP-92 NSCLC,2460 nM
same,GI50,HS 578T breast,1750 nM
same,TGI,HS 578T breast,3140 nM
same,GI50,HT29 colon,285 nM
same,TGI,HT29 colon,1110 nM
same,GI50,IGROV1 ovarian,1530 nM
same,TGI,IGROV1 ovarian,11300 nM
same,GI50,K-562 leukemia,484 nM
same,TGI,K-562 leukemia,1740 nM
same,GI50,KM12 colon,991 nM
same,TGI,KM12 colon,2520 nM
same,GI50,LOX IMVI melanoma,1450 nM
same,TGI,LOX IMVI melanoma,2790 nM
same,GI50,M14 melanoma,1740 nM
same,TGI,M14 melanoma,3140 nM
same,GI50,MALME-3M melanoma,1370 nM
same,TGI,MALME-3M melanoma,2680 nM
same,GI50,MCF7 breast,1110 nM
same,TGI,MCF7 breast,2400 nM
same,GI50,MDA-MB-231 breast,1610 nM
same,TGI,MDA-MB-231 breast,3340 nM
same,GI50,MDA-MB-435 melanoma,1160 nM
same,TGI,MDA-MB-435 melanoma,2400 nM
same,GI50,MDA-MB-468 breast,262 nM
same,TGI,MDA-MB-468 breast,587 nM
same,GI50,MOLT-4 leukemia,552 nM
same,TGI,MOLT-4 leukemia,1910 nM
same,GI50,NCI-H226 lung,1790 nM
same,TGI,NCI-H226 lung,3940 nM
same,GI50,NCI-H23 lung,1950 nM
same,TGI,NCI-H23 lung,4650 nM
same,GI50,NCI-H322M lung,1490 nM
same,TGI,NCI-H322M lung,3010 nM
same,GI50,NCI-H460 NSCLC,365 nM
same,TGI,NCI-H460 NSCLC,1040 nM
same,GI50,NCI-H522 lung,634 nM
same,TGI,NCI-H522 lung,1830 nM
same,GI50,NCI/ADR-RES ovarian,69000 nM
same,TGI,NCI/ADR-RES ovarian,> 100000 nM
same,GI50,OVCAR-3 ovarian,835 nM
same,TGI,OVCAR-3 ovarian,2080 nM
same,GI50,OVCAR-4 ovarian,1120 nM
same,TGI,OVCAR-4 ovarian,2440 nM
same,GI50,OVCAR-5 ovarian,1970 nM
same,TGI,OVCAR-5 ovarian,4260 nM
same,GI50,OVCAR-8 ovarian,1540 nM
same,TGI,OVCAR-8 ovarian,2910 nM
same,GI50,PC-3 prostate,1430 nM
same,TGI,PC-3 prostate,4160 nM
same,GI50,RPMI-8226 leukemia,368 nM
same,TGI,RPMI-8226 leukemia,1130 nM
same,GI50,RXF 393 renal,347 nM
same,TGI,RXF 393 renal,1400 nM
same,GI50,SF-268 CNS,307 nM
same,TGI,SF-268 CNS,1520 nM
same,GI50,SF-295 CNS,1800 nM
same,TGI,SF-295 CNS,3210 nM
same,GI50,SF-539 CNS,292 nM
same,TGI,SF-539 CNS,937 nM
same,GI50,SK-MEL-28 melanoma,1260 nM
same,TGI,SK-MEL-28 melanoma,2530 nM
same,GI50,SK-MEL-5 melanoma,873 nM
same,TGI,SK-MEL-5 melanoma,2120 nM
same,GI50,SK-OV-3 ovarian,1410 nM
same,TGI,SK-OV-3 ovarian,2970 nM
same,GI50,SN12C renal,1120 nM
same,TGI,SN12C renal,2950 nM
same,GI50,SNB-19 CNS,1230 nM
same,TGI,SNB-19 CNS,3100 nM
same,GI50,SNB-75 CNS,1400 nM
same,TGI,SNB-75 CNS,2710 nM
same,GI50,SW-620 colon,1550 nM
same,TGI,SW-620 colon,2910 nM
same,GI50,T-47D breast,573 nM
same,TGI,T-47D breast,1830 nM
same,GI50,TK-10 renal,1280 nM
same,TGI,TK-10 renal,2560 nM
same,GI50,U251 glioblastoma,1030 nM
same,TGI,U251 glioblastoma,2200 nM
same,GI50,UACC-257 melanoma,1250 nM
same,TGI,UACC-257 melanoma,2510 nM
same,GI50,UACC-62 melanoma,1750 nM
same,TGI,UACC-62 melanoma,3150 nM
same,GI50,UO-31 renal,1320 nM
same,TGI,UO-31 renal,2720 nM
